Reference: US20030109490A1, “Composite stimulating iNOS enzyme which induce immuno-reactant nitric oxide synthesis and process for preparing the same” (priority 2001, published 2003)

How the values were obtained:
[1] = test system: Macrophage RAW264.7; experiment: NO production by macrophage RAW264.7 (microplate assay, griess reagent); format: cell-based; conditions: TAXOL 10 μg/ml
[2] = anti-oxidative activity calculated as UV blocking value; format: physicochemical; conditions: 528 nm
Procedure: The anti-oxidative activity of the composite of this invention was measured at the wavelength of 528 nm using an UV-visible spectrometer (Cary, Virian Co., USA).

[3] = test system: Macrophage RAW 264.7; experiment: TNF-α secretion of macrophage RAW 264.7 (ELISA); format: cell-based; conditions: rIFN-γ alone, no LPS, no composite, 28 hrs

In the case of CC(=O)O[C@H]1C(=O)[C@@]2(C)[C@H]([C@H](OC(=O)c3ccccc3)[C@]3(O)C[C@H](OC(=O)[C@H](O)[C@@H](NC(=O)c4ccccc4)c4ccccc4)C(C)=C1C3(C)C)[C@]1(OC(C)=O)CO[C@@H]1C[C@@H]2O [TAXOL ®], the NO ([1]; rIFN-γ added, no LPS, 0 h) is reported as <4.0 µM, the NO ([1]; rIFN-γ added, no LPS, 12 h) is reported as 30.56 ± 3.2 µM and the NO ([1]; rIFN-γ and LPS added, 24 h) is reported as 45.1 ± 1.2 µM.

For O=C1O[C@H]([C@@H](O)CO)C(O)=C1O [Vitamin C], the “anti-oxidative activity (UV blocking value)” value (from here on “anti-oxidative activity”) ([2]; 0.1% solution) was 21.23%, the “anti-oxidative activity” value ([2]; 0.5% solution) was 28.51% and the “anti-oxidative activity” value ([2]; 1% solution) was 47.83%. The “anti-oxidative activity” value ([2]; 2% solution) was 58.28%.

B1: rIFN-γ: recombinant IFN-γ used to stimulate macrophage RAW264.7 (protein, UniProt P01580 23-155, looked up)
Interferon gamma: HGTVIESLESLNNYFNSSGIDVEEKSLFLDIWRNWQKDGDMKILQSQIISFYLRLFEVLKDNQAISNNISVIESHLITTFFSNSKAKKDAFMSIAKFEVNNPQVQRQAFNELIRVVHQLLPESSLRKRKRSRC
For B1, the TNF-a [3] was 0.76 ± 0.02 ng/mL.
